In publication PMC5148686 (European journal of medicinal chemistry, 2016):
“Also recorded” adds a separate entry of the source.

Tests used:
[1] = target: human dopamine D2 receptor (Homo sapiens, UniProt P14416); assay: PDSP radioligand binding assay at dopamine D2 receptor; conditions: primary assay at 10 μM; not progressed to secondary assay
[2] = target: dopamine D1 receptor (Macaca mulatta, UniProt O77680); assay: [35S]GTPγS binding stimulation in HEK293-rh D1 cells; format: cell-based, rhesus macaque; conditions: compared with dopamine as full agonist
Chain of dopamine D1 receptor (O77680 whole entry): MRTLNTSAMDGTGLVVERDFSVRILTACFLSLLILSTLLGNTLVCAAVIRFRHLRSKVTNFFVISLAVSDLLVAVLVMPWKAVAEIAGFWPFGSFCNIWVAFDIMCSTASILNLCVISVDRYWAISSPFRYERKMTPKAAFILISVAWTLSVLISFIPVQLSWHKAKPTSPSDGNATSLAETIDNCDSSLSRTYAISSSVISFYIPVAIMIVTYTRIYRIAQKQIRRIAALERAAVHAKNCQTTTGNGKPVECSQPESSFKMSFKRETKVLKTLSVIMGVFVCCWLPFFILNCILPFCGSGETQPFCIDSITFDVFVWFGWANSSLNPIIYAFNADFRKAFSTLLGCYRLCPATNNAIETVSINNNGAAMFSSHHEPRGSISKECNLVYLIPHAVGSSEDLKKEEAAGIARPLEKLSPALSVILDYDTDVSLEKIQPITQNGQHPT

[3] = target: T1, dopamine D3 receptor (Homo sapiens, UniProt P35462); assay: [35S]GTPγS binding in CHO-hD3 cells; format: cell-based; conditions: compared with dopamine as full agonist
T1 sequence (P35462 whole entry): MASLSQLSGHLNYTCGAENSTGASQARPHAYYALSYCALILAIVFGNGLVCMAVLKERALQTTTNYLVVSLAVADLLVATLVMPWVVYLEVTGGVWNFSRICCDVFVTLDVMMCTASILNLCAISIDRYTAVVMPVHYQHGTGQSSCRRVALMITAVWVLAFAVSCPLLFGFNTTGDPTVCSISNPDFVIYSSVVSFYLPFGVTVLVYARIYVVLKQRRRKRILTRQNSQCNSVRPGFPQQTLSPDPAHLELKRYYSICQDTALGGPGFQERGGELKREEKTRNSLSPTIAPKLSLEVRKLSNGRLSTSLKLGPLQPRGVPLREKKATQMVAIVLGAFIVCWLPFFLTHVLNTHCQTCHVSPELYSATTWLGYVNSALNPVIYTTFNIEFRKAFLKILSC

[4] = target: T1, dopamine D3 receptor; assay: PDSP radioligand binding assay at dopamine D3 receptor; conditions: versus 22c

Chain of human dopamine D2 receptor (P14416 whole entry): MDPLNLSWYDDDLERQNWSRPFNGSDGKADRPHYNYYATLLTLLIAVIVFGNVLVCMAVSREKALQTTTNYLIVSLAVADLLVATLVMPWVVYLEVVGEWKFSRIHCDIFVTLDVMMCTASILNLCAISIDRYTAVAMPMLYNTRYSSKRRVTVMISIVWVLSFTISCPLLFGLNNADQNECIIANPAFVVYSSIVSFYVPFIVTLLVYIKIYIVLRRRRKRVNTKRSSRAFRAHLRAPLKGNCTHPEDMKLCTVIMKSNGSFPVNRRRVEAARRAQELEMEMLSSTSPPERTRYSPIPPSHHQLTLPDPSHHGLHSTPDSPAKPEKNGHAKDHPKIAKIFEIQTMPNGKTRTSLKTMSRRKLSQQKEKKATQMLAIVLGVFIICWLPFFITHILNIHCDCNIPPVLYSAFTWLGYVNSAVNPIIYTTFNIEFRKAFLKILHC

Structure (SMILES) | D2 receptor affinity in the primary assay [1] | further results
CCOc1c(O)cc(Br)c2c1CN1CCc3cc(OC)c(O)cc3[C@@H]1C2 [Compound 20a, (S)-12-bromo-9-ethoxy-3-methoxy-5,8,13,13a-tetrahydro-6H-isoquinolino[3,2-a]isoquinoline-2,10-diol] | did not show any appreciable D2 receptor affinity | –
COCCOc1c(O)cc(Br)c2c1CN1CCc3cc(OC)c(O)cc3[C@@H]1C2 [Compound 20g, (S)-12-bromo-3-methoxy-9-(2-methoxyethoxy)-5,8,13,13a-tetrahydro-6H-isoquinolino[3,2-a]isoquinoline-2,10-diol] | did not show any appreciable D2 receptor affinity; also recorded: no activity | –
CCOc1c(O)ccc2c1CN1CCc3cc(OC)c(O)cc3[C@@H]1C2 [Compound 22a, (S)-9-ethoxy-3-methoxy-5,8,13,13a-tetrahydro-6H-isoquinolino[3,2-a]isoquinoline-2,10-diol] | lacked any appreciable affinity | intrinsic activity at D1 receptor (stimulation of GTPγ-S binding) [2]: lacked intrinsic activity; intrinsic activity at D3 receptor (stimulation of GTPγ-S binding) [3]: lacked intrinsic activity
CCCCOc1c(O)ccc2c1CN1CCc3cc(OC)c(O)cc3[C@@H]1C2 [Compound 22c, (S)-9-butoxy-3-methoxy-5,8,13,13a-tetrahydro-6H-isoquinolino[3,2-a]isoquinoline-2,10-diol] | lacked any appreciable affinity | –
CCCCCCOc1c(O)ccc2c1CN1CCc3cc(OC)c(O)cc3[C@@H]1C2 [Compound 22e, (S)-9-(hexyloxy)-3-methoxy-5,8,13,13a-tetrahydro-6H-isoquinolino[3,2-a]isoquinoline-2,10-diol] | lacked any appreciable affinity | –
COCCOc1c(O)ccc2c1CN1CCc3cc(OC)c(O)cc3[C@@H]1C2 [Compound 22g, (S)-3-methoxy-9-(2-methoxyethoxy)-5,8,13,13a-tetrahydro-6H-isoquinolino[3,2-a]isoquinoline-2,10-diol] | – | fold higher D3 affinity than n-butyloxy analogue 22c [4]: 4 fold
